Measurements: US20190344265A1, “Networked Cell Holder Chip” (priority 2018, published 2019)

Tested on: breast cancer cells
Assay: Cell protrusion length of breast cancer cells in the networked cell-holder chip (time course imaging)
Type: cell-based
From the text: To load the cells into the chip of the present invention, a medium containing suspended cells is dropped onto the surface of the well plate of a chip of the present invention via a multichannel pipette or liquid handling system. In some embodiments of the present invention, 20-ml of the medium is dropped onto a chip of the present invention having a width of 86 mm, a length of 128 mm, and height of 14 mm. The chip is loaded on one of the receptors 302 of the bucket rotor 300. The bucket rotor is spun by the centrifuge 304 to drive the cells into the microwells of the chip. […] Filter papers (e.g., manufactured by Whatman) are used to swipe away the unloaded cells. Finally, the cells are cultured at 37° C. in the chip 100 a humidified atmosphere with 5% CO2, to enable protrusions to extend in the microchannels. The cells are also stained (for example, with green fluorescent protein—GFP) to enhance visibility of the cells and protrusions. […] The loaded breast cancer cells in both chips were incubated overnight. In the chip that was to be treated with the drug, the medium was replaced by a fresh culture medium mixed with paclitaxel concentration of 0.5 μM, after the incubation period.

CC(=O)O[C@H]1C(=O)[C@@]2(C)[C@H]([C@H](OC(=O)c3ccccc3)[C@]3(O)C[C@H](OC(=O)[C@H](O)[C@@H](NC(=O)c4ccccc4)c4ccccc4)C(C)=C1C3(C)C)[C@]1(OC(C)=O)CO[C@@H]1C[C@@H]2O [paclitaxel]
time until effects of the drug on the cancer cells were clear (breast cancer cells in chip, paclitaxel 0.5 μM): within one hour
normalized length of cell protrusion over time (breast cancer cells incubated overnight in chip, then medium with paclitaxel 0.5 μM, sample of 51 cells (FIG. 29), untreated comparison 64 cells (FIG. 28)): reduces the length of the protrusions
